From US4686220A, “Substituted 2-[b-substituted-amino)-ethylamino]-1,4-naphthalenediones for treating asthma, allergic diseases and inflammation in warm-blooded animals” (American Cyanamid Company, priority 1985, dated 1987)
Counter-ions that a name gives are not always drawn. Like-named read-outs stand apart in the source and are kept apart here.

Molecular target: T1, Neutrophil Lipoxygenase (Cavia porcellus, UniProt A0A286X958)
T1 construct: endogenous in cells; host or cells: guinea pig peritoneal neutrophils
T1 sequence (A0A286X958 1-674): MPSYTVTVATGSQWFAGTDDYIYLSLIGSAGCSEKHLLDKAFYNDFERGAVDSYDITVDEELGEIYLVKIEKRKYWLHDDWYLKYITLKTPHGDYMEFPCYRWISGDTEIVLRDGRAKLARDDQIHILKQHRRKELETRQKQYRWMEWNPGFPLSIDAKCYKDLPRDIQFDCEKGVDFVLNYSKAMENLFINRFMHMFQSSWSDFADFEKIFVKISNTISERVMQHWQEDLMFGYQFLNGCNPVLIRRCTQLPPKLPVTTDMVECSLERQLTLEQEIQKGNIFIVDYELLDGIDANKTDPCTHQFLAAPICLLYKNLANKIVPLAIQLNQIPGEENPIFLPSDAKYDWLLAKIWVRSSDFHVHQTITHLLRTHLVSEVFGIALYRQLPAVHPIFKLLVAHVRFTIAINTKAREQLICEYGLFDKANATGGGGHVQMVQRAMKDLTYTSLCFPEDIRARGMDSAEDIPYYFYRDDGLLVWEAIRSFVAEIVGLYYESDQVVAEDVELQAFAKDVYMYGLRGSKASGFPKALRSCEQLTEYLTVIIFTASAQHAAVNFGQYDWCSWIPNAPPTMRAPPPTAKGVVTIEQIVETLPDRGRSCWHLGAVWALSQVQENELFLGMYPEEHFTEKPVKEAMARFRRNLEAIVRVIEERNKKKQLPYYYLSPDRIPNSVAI
Assay: Inhibition of Neutrophil Lipoxygenase from Immunologically Stimulated Guinea Pig Neutrophiles (LTB4 and 5-HETE)
Assay type: cell-based
Details: 10 μg/ml, 100 μM arachidonic acid and 20 μM A23187, the lower the percentage, the more active
Protocol: In this assay 3×10^7 peritoneal neutrophils derived from guinea pigs were incubated at 37° C. in Dulbeccos buffer containing 50 mM tris buffer (pH 7.4). Five minutes before the addition of 100 μM arachidonic acid and 20 μM calcium ionophore (A23187), control vehicle or the test compounds were added to the neutrophils at a concentration of 10 μg/ml. Three minutes after the addition of arachidonic acid and calcium ionophore the total lipid was partitioned into chloroform after adjusting the pH to 3 with citric acid and the addition of equal parts of methanol and chloroform. The 5-HETE and LTB4 were resolved by HPLC using a 5 μM, 4×25 cm octadecyl silica column (IBM Instruments) with 70-80% methanol in water adjusted to pH 3.0 with acetic acid. As the mobile phase was pumped at 1.0 ml/minute, LTB4 and 5-HETE were detected by absorbance at 270 and 236 nm, respectively. LTB4 and 5-HETE were quantitated by comparison with the control and the results were expressed as a percent of control.

SMILES | remaining activity at 10 µg/mL (read-out: 5-HETE, % of Control) [%] | remaining activity at 10 µg/mL (read-out: LTB4, % of Control) [%]
O=C1C(Cl)=C(N2CCN(c3ccc4ccccc4n3)CC2)C(=O)c2ccccc21 [Example 10, 2-chloro-3-[4-(2-quinolinyl)-1-piperazinyl]-1,4-naphthalenedione, hydrochloride] | 0 | 0
O=C1C(Cl)=C(N2CCN(Cc3ccc4c(c3)OCO4)CC2)C(=O)c2ccccc21 [Example 11, 2-[4-(1,3-benzodioxol-5-ylmethyl)-1-piperazinyl]-3-chloro-1,4-naphthalenedione, hydrochloride] | 0 | 0
O=C1C(Cl)=C(N2CCN(c3ncccn3)CC2)C(=O)c2ccccc21 [Example 12, 2-chloro-3-[4-(2-pyrimidinyl)-1-piperazinyl]-1,4-naphthalenedione] | 34.3 | –
CC(=O)NC1=C(N2CCN(c3nc4ccccc4s3)CC2)C(=O)c2ccccc2C1=O [Example 23, N-[3-[4-(2-benzothiazolyl)-1-piperazinyl]-1,4-dihydro-1,4-dioxo-2-naphthalenyl]acetamide] | 0 | 0
CCOC(=O)N1CCN(C2=C(C)C(=O)c3ccccc3C2=O)CC1 [Example 41, 4-(1,4-Dihydro-3-methyl-1,4-dioxo-2-naphthalenyl)-1-piperazinecarboxylic acid, ethyl ester] | 2.2 | –
CC1=C(N2CCN(c3nc4ccccc4s3)CC2)C(=O)c2ccccc2C1=O [Example 42, 2-[4-(2-benzothiazolyl)-1-piperazinyl]-3-methyl-1,4-naphthalenedione] | 0.8 | 20.8
CC1=C(N2CCN(Cc3ccccc3)CC2)C(=O)c2ccccc2C1=O [Example 43, 2-methyl-3-[4-(phenylmethyl)-1-piperazinyl]-1,4-naphthalenedione] | 0.7 | 4.8
CC1=C(N2CCN(c3ccccn3)CC2)C(=O)c2ccccc2C1=O [Example 44, 2-methyl-3-[4-(2-pyridinyl)-1-piperazinyl]-1,4-naphthalenedione] | 0 | 0
O=C1C(Cl)=C(N2CCCN(c3nc4ccccc4s3)CC2)C(=O)c2ccccc21 [Example 52, 2-[4-(2-Benzothiazolyl)hexahydro-1H-diazepin-1-yl]-3-chloro-1,4-naphthalenedione] | 1.1 | –

More lines, now with the values ahead:

remaining activity at 10 µg/mL (read-out: 5-HETE, % of Control) [%] | remaining activity at 10 µg/mL (read-out: LTB4, % of Control) [%] | SMILES
0.3 | – | CC(=O)NC1=C(N2CCN(c3cccc(C(F)(F)F)c3)CC2)C(=O)c2ccccc2C1=O [Example 28, N-[1,4-dihydro-1,4-dioxo-3-[4-[3-(trifluoromethyl)phenyl]-1-piperazinyl]-2-naphthalenyl]acetamide]
19.9 | 22.2 | O=C1C(Cl)=C(N2CCN(C(=O)Nc3ccccc3Cl)CC2)C(=O)c2ccccc21 [Example 29, 4-(3-Chloro-1,4-dihydro-1,4-dioxo-2-naphthalenyl)-N-(2-chlorophenyl)-1-piperazinecarboxamide]
2 | 0 | O=C1C(Cl)=C(N2CCN(C(=O)Nc3ccccc3F)CC2)C(=O)c2ccccc21 [Example 30, 4-(3-chloro-1,4-dihydro-1,4-dioxo-2-naphthalenyl)-N-(2-fluorophenyl)-1-piperazinecarboxamide]
0 | – | O=C1C(Cl)=C(N2CCN(C(=O)Nc3cccc(C(F)(F)F)c3)CC2)C(=O)c2ccccc21 [Example 31, 4-(3-chloro-1,4-dihydro-1,4-dioxo-2-naphthalenyl)-N-[3-(trifluoromethyl)phenyl]-1-piperazinecarboxamide]
1.4 | – | O=C1C(Cl)=C(N2CCN(C(=O)Nc3ccc(Cl)cc3)CC2)C(=O)c2ccccc21 [Example 32, 4-(3-chloro-1,4-dihydro-1,4-dioxo-2-naphthalenyl)-N-(4-chlorophenyl)-1-piperazinecarboxamide]
13.7 | 23.2 | CCCCc1ccc(C(=O)N2CCN(C3=C(Cl)C(=O)c4ccccc4C3=O)CC2)cc1 [Example 35, 1-(4-butylbenzoyl)-4-(3-chloro-1,4-dihydro-1,4-dioxo-2-naphthalenyl)piperazine]
0 | – | CC1=C(N2CCN(c3cccc(C(F)(F)F)c3)CC2)C(=O)c2ccccc2C1=O [Example 45, 2-methyl-3-[4-[3-(trifluoromethyl)phenyl]-1-piperazinyl]-1,4-naphthalenedione]
8.8 | – | CC1=C(N2CCN(C(=O)Nc3ccc(Cl)cc3)CC2)C(=O)c2ccccc2C1=O [Example 54, N-(4-Chlorophenyl)-4-(1,4-dihydro-3-methyl-1,4-dioxo-2-naphthalenyl)-1-piperazinecarboxamide]
19.6 | 13.5 | O=C1C(Cl)=C(N2CCN(c3nc4ccccc4o3)CC2)C(=O)c2ccccc21 [Example 55, 2-[4-(2-Benzoxazolyl)-1-piperazinyl]-3-chloro-1,4-naphthalenedione]
25.7 | 15.2 | CC1CN(C2=C(Cl)C(=O)c3ccccc3C2=O)CCN1C(=O)Nc1cccc(Cl)c1 (stereo not drawn) [Example 58, 4-(3-Chloro-1,4-dihydro-1,4-dioxo-2-naphthalenyl)-N-(3-chlorophenyl)-2-methyl-1-piperazinecarboxamide]
